Laboratory results from ChEMBL document CHEMBL1129211, “Design and synthesis of sialyl Lex mimetics based on carbocyclic scaffolds derived from () quinic acid” (Bioorg Med Chem Lett, 1997).

Columns and labels:
[1] = target: T1, E-selectin (Homo sapiens) (UniProt P16581); assay: Tested for binding activity against Selectin E of the compound; inactive
T1 sequence (whole entry): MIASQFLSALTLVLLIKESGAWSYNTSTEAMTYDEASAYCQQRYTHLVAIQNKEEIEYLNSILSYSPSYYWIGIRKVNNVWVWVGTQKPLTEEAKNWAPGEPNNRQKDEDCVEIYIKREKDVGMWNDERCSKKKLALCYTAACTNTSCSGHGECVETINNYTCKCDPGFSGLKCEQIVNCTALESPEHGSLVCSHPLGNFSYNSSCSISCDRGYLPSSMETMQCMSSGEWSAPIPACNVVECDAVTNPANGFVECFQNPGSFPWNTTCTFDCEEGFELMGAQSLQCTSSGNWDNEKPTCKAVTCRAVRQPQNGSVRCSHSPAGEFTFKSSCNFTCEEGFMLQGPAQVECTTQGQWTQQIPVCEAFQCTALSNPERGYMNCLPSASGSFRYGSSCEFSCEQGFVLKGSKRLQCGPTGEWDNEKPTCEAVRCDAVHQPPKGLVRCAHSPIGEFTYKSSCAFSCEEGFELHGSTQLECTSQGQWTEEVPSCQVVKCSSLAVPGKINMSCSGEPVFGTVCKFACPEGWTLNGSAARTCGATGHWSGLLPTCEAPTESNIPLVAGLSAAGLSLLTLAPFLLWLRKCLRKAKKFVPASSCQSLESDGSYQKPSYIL

[2] = target: T1, E-selectin (Homo sapiens); assay: Tested for binding activity against Selectin E of the compound

Structure (SMILES)	Activity [1] [mM]	Activity [2] [mM]
C[C@@H]1O[C@@H](O[C@@H]2[C@@H](O)C[C@@](O)(CO)C[C@H]2O[C@@H]2O[C@@H](CO)[C@H](O)[C@H](OCC(=O)O)[C@@H]2O)[C@@H](O)[C@@H](O)[C@@H]1O	> 10	
CC(=O)N[C@H]1[C@H]([C@H](O)[C@H](O)CO)O[C@@](O[C@@H]2[C@H](O)[C@H](O[C@@H]3C[C@](O)(CO)C[C@H](O)[C@H]3O[C@@H]3O[C@@H](C)[C@@H](O)[C@H](O)[C@@H]3O)O[C@@H](CO)[C@@H]2O)(C(=O)O)C[C@H]1O		1
CC1OC(OC(C)(C)COCC2(O)CCC(O)C(OCC(=O)O)C2O)C(O)C(O)C1O (centres undefined)	> 10	
CC1OC(OC(C)(C)COCC2CC(O)C(O)C(OCC(=O)O)C2)C(O)C(O)C1O (centres undefined)	> 10	
